Assay results reported in patent publication US20220295713A1, “PLANT ACTIVATOR AND A METHOD OF MANUFACTURING THE SAME” (IBIDEN CO., LTD., priority 2016, published 2022).

Key:
[1] = tested on: bacterial soft rot causing bacteria (Erwinia carotovora subsp. Carotovora); test: Bacterial soft rot in Arabidopsis thaliana after root treatment by watering; type: in vivo; details: comparative agents used instead of the plant activator, roots treated by watering, inoculated 24 hours after treatment
Protocol: The roots of Arabidopsis thaliana grown in the soil were treated by applying the 10 times, 100 times or 500 times diluted solution of the plant activator for test using the watering. 24 hours after the treatment, bacterial soft rot causing bacteria (Erwinia carotovora subsp. Carotovora) was inoculated on the leaves and stems above the ground. The plants were then grown at 23±2° C. in a high humidity environment for 3 days, and the disease symptoms at the pathogenic bacteria inoculated part had been evaluated up to one week after. The disease prevention effect was determined according to the following criteria.
⊚: the ratio of the area of leaves with no disease symptoms out of total area is 1.60 times or greater than the ratio observed in untreated leaves. ∘: the ratio of the area of leaves with no disease symptoms out of total area is 1.40 to 1.59 times than the ratio observed in untreated leaves. Δ: the ratio of the area of leaves with no disease symptoms out of total area is 1.20 to 1.39 times than the ratio observed in untreated leaves. X: the ratio of the area of leaves with no disease symptoms out of total area is 1.20 times less than the ratio observed in untreated leaves.
The roots of Arabidopsis thaliana were treated similar to Example 2 except that the water, peroxylipid, probenazole, isotianil, acibenzolar-S-methyl (ASM), 3′-chloro-4,4′-dimethyl-1,2,3-thiadiazole-5-carboxianilide (tiadinil), ketol fatty acid solution 1, or ketol fatty acid solution 2 was used instead of the plant activator for test.

[2] = tested on: bacterial wilt disease; test: Bacterial wilt disease in tomatoes growing in farm field; type: in vivo, Tomato (cultivar "Reika"); details: plant activator 50 times diluted, applied once every week
Protocol: (§1) Tomato (cultivar “Reika”) seedlings were planted with space of 60 cm between plants in the farm field where an outburst of bacterial wilt disease was observed, and the solution of the plant activator for test, which was 50 times diluted with water, was applied either by spraying (20 mL/plant) or watering it to soil (200 mL plant) once every week. The incidences of the bacterial wilt disease and phytotoxic damage were evaluated once every week for 4 weeks.
(§2) The leaves and stems of tomatoes were treated similar to Example 6 except that the Validamycin or no agent was used instead of the plant activator for test.

[3] = tested on: Tomato (cultivar "Reika"); type: in vivo; details: farm field, plant activator 50 times diluted, applied once every week
Protocol: as §1, §2

[4] = tested on: bacterial wilt disease bacteria; test: Bacterial wilt disease in tomatoes grown in pot; type: in vivo, tomatoes (cultivar "Momotaro"); details: 10 mL undiluted solution by watering, grown 7 days at 30° C. after inoculation
Protocol: (§3) The leaves and stems of tomatoes (cultivar “Momotaro”) grown in the pot for 3 weeks were treated by applying 10 mL of undiluted solution of the plant activator for test using the watering. The soil (about 100 g) in the pot was moistened thoroughly before the watering. The bacterial wilt disease bacteria were inoculated on the leaves and roots of tomatoes 1 hour and 24 hours after the watering. The plants were then grown at 30° C. in a high humidity environment for 7 days, and the incidences of the bacterial wilt disease and phytotoxic damage were evaluated.
(§4) The leaves and stems of tomatoes were treated similar to Example 5 except that the water and the fatty acid (linoleic acid) were used instead of the plant activator for test.

[5] = tested on: tomatoes (cultivar "Momotaro"); test: Phytotoxic damage in tomatoes grown in pot; type: in vivo; details: 10 mL undiluted solution by watering, 7 days
Protocol: as §3, §4

[6] = tested on: salicylic acid mediated signaling pathway; test: Real-time PCR gene expression in tomatoes, salicylic acid mediated signaling pathway; type: in vivo, tomatoes (cultivar "Momotaro"); details: index, untreated tomatoes = 1
Protocol: (§5) Further, the cDNA was synthesized from total RNA isolated from each tomato 24 hours and 72 hours after the inoculation, and the expression level of individual genes specific to the salicylic acid mediated signaling pathway and the jasmonate mediated signaling pathway was analyzed by real-time PCR. In this example, the amount of the gene expression is represented by an index, which is a calculated ratio given that the amount of gene expression in untreated tomatoes is 1.

[7] = tested on: jasmonate mediated signaling pathway; test: Real-time PCR gene expression in tomatoes, jasmonate mediated signaling pathway; type: in vivo, tomatoes (cultivar "Momotaro"); details: index, untreated tomatoes = 1
Protocol: as §5

[8] = tested on: powdery mildew; test: Naturally occurring powdery mildew in miniature roses in a planter; type: in vivo, miniature roses (cultivar Rouge); details: plant activator 100 times diluted or 0.02% mepanipyrim, sprayed once every week
Protocol: (§6) The solution of the plant activator for test, which was 100 times diluted with water, was applied to the leaves and stems of miniature roses (cultivar Rouge) planted in an outdoor planter right after the planting and once every week by spraying (about 50 mL/plant), and the naturally occurring damages due to disease (powdery mildew and black point disease) were evaluated on first week and fourth week.
(§7) The leaves and stems of miniature roses were treated similar to Example 7 except that 0.02% mepanipyrim or no agent was used instead of the plant activator for test.

[9] = tested on: black point disease; test: Naturally occurring black point disease in miniature roses in a planter; type: in vivo, miniature roses (cultivar Rouge); details: plant activator 100 times diluted or 0.02% mepanipyrim, sprayed once every week
Protocol: as §6, §7

CSC(=O)c1cccc2nnsc12 [ASM, acibenzolar-S-methyl]
disease prevention [1]: ⊚ (the ratio of the area of leaves with no disease symptoms out of total area is 1.60 times or greater than the ratio observed in untreated leaves.)

OCC1=C[C@H](N[C@H]2C[C@H](CO)[C@@H](O[C@@H]3O[C@H](CO)[C@@H](O)[C@H](O)[C@H]3O)[C@H](O)[C@H]2O)[C@H](O)[C@@H](O)[C@@H]1O [Validamycin]
incidences of disease Week 1 ([2]; Week 1): 0% | incidences of disease Week 2 ([2]; Week 2): 0% | incidences of disease Week 3 ([2]; Week 3): 0% | incidences of disease Week 4 ([2]; Week 4): 67% | incidences of phytotoxic damage Week 1 ([3]; Week 1): 100% | incidences of phytotoxic damage Week 2 ([3]; Week 2): 100% | incidences of phytotoxic damage Week 3 ([3]; Week 3): 100% | incidences of phytotoxic damage Week 4 ([3]; Week 4): 100%

CCCCC/C=C\C/C=C\CCCCCCCC(=O)O [fatty acid, linoleic acid]
incidences of disease [4]: 100% | incidences of phytotoxic damage [5]: 0% | amount of gene expression salicylic acid mediated signaling pathway 24 hours ([6]; 24 hours after inoculation): 0 | amount of gene expression salicylic acid mediated signaling pathway 72 hours ([6]; 72 hours after inoculation): 0 | amount of gene expression jasmonate mediated signaling pathway 24 hours ([7]; 24 hours after inoculation): 0.5 | amount of gene expression jasmonate mediated signaling pathway 72 hours ([7]; 72 hours after inoculation): 1

N#Cc1ccccc1NC(=O)c1snc(Cl)c1Cl [isotianil]
disease prevention [1]: Δ (the ratio of the area of leaves with no disease symptoms out of total area is 1.20 to 1.39 times than the ratio observed in untreated leaves.)

CC#Cc1cc(C)nc(Nc2ccccc2)n1 [mepanipyrim]
incidences of disease powdery mildew Week 1 ([8]; Week 1): 20.0% | incidences of disease powdery mildew Week 4 ([8]; Week 4): 30.0% | incidences of disease black point disease Week 1 ([9]; Week 1): 0% | incidences of disease black point disease Week 4 ([9]; Week 4): 15%

C=CCOC1=NS(=O)(=O)c2ccccc21 [probenazole]
disease prevention [1]: Δ (the ratio of the area of leaves with no disease symptoms out of total area is 1.20 to 1.39 times than the ratio observed in untreated leaves.)

Cc1ccc(NC(=O)c2snnc2C)cc1Cl [tiadinil, 3′-chloro-4,4′-dimethyl-1,2,3-thiadiazole-5-carboxianilide]
disease prevention [1]: X (the ratio of the area of leaves with no disease symptoms out of total area is 1.20 times less than the ratio observed in untreated leaves.)
